Structures are written as SMILES. Bounds are passed on as bounds.

The source of these data is patent publication US20090275574A1, “NOVEL COMPOUNDS-300” (ASTRAZENECA AB, priority 2008, published 2009).

Experiment [1] has as its target T1, hM3 (human Muscarinic receptor subtype 3) (Homo sapiens, UniProt P20309).
T1 construct: expressed in transfected cells; host or cells: CHO cells (ATCC)
As to the kind of experiment: Human M3 calcium mobilization FLIPR assay. The format is cell-based. The following applies: hM3 expressed in CHO cells, intracellular Ca2+ release (FLIPR). The method in brief: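 CHO cells expressing human M1, M3 or M5 receptors, dye-loaded 60 min at 37 °C; Ca2+ release read by FLIPR (510-570 nm). M3/M5 inhibition measured against 2 nM acetylcholine added after compound; M1 agonism from maximal RFU, others max minus min. pEC50/pIC50 from sigmoidal fits, 10-point three-fold dilutions.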

Experiment [2] concerns the target T2, cloned human M4 receptor (Homo sapiens, UniProt P08173).
T2 construct: purchased Perkin-Elmer RBHM4M; host or cells: Chinese hamster ovary cells (CHO), membranes
T2 sequence (P08173 1-479): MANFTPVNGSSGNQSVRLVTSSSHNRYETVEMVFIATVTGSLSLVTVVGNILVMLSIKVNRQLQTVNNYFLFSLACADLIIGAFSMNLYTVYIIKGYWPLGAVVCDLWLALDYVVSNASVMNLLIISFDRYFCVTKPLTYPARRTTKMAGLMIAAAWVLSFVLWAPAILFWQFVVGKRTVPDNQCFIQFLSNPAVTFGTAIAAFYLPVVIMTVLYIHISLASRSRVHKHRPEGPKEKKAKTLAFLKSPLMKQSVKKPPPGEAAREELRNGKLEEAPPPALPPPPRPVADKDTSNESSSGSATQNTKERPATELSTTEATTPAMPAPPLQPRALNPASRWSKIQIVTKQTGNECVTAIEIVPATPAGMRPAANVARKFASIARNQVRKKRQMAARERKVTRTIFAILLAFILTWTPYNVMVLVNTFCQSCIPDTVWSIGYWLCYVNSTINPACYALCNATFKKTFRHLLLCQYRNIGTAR
Put plainly: hM4 receptor GTPγS binding. The settings on record: CHO membranes expressing hM4, [35S]GTPγS binding. The format is biochemical. Here is the method: hM4 Receptor GTPγS Binding Membranes produced from Chinese hamster ovary cells (CHO) expressing the cloned human M4 receptor (human Muscarinic receptor subtype 4, gene bank access NM_000741), are obtained from Perkin-Elmer (RBHM4M). The membranes are thawed at 37° C., passed 3 times through a 23-gauge blunt-end needle, diluted in the GTPγS binding buffer (50 mM Hepes, 20 mM NaOH, 100 mM NaCl, 1 mM EDTA, 5 mM MgCl2, pH 7.4, 100 μM DTT). The EC50, IC50 and Emax of the compounds of the invention are evaluated from 10-point dose-response curves (three fold concentration range) done in 60 μl in 384-well non-specific binding surface plate (Corning). Ten microliters from the dose-response curves plate (5× concentration) are transferred to another 384 well plate containing 25 μl of the following: 10 μg of hM4 membranes, 500 μg of Flashblue beads (Perkin-Elmer) and GDP 40 μM. An additional 15 μl containing 3.3× (60,000 dpm) of GTPγ^35S (0.4 nM final) are added to the wells resulting in a total well volume of 50 μl. Basal and maximal stimulated [^35S]GTPγS binding are determined in absence and presence of 30 μM final of acetylcholine agonist. The membranes/beads mix are pre-incubated for 15 minutes at room temperature with 40 μM GDP prior to distribution in plates (20 μM final). The reversal of acetylcholine-induced stimulation (10 μM final) of [^35S]GTPγS binding is used to assay the antagonist properties (IC50) of the compounds. The plates are incubated for 60 minutes at room temperature then centrifuged at 400 rpm for 5 minutes. The radioactivity (cpm) is counted in a Trilux (Perkin-Elmer). Values of EC50, IC50 and Emax are obtained using sigmoidal fits of a non-linear curve-fitting program (XLfit version 4.2.2 Excel add-in version 4.2.2 build 18 math 1Q version 2.1.2 build 18) of percent stimulated [^35S]GTPγS binding vs. log(molar ligand). All pEC50 and pIC50 values are reported as arithmetic means±standard error of mean of ‘n’ independent experiments.
Background: GTPγS resists hydrolysis and so accumulates on activated G proteins.

T1 sequence (P20309 whole entry): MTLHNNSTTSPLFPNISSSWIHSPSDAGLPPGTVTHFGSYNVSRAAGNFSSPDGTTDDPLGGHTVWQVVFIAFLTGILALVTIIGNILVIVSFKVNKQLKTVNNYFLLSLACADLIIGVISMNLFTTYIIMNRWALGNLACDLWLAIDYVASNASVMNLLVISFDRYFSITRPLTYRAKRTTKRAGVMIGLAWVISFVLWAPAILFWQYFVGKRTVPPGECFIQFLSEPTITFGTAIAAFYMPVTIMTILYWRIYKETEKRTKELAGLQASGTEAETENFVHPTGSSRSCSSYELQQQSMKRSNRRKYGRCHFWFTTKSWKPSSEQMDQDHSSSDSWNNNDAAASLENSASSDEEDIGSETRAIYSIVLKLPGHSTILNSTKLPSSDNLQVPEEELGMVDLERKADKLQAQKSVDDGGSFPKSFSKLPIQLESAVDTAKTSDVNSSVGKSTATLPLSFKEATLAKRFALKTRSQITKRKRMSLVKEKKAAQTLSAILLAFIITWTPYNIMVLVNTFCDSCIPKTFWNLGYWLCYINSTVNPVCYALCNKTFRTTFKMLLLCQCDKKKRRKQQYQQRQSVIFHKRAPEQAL

As a reminder, the EC50 is the concentration at which the effect is half-maximal. Regarding `CCOC[C@@H]1CC[C@H](N2CCC(N3C(=O)CO[C@H]4CCCC[C@@H]43)CC2)C1` [Example 43, (4aS,8aS)-4-(1-((1S,3R)-3-(ethoxymethyl)cyclopentyl)piperidin-4-yl)hexahydro-2H-benzo[b][1,4]oxazin-3(4H)-one], the half-maximal effective concentration (EC50) in experiment [1] was greater than 40 µM; in experiment [2], greater than 28.1 µM.
